Experimental data reported in US20240376069A1, “COMPOUNDS AND METHODS FOR LABELING LIPIDATED NUCLEOTIDES” (The Research Foundation for The State University of New York, priority 2023, published 2024).

Key:
HEK293T cells = test: In-cell fluorescent labelling of SelU-mediated tRNA geranylation, confocal imaging; assay type: cell-based
Procedure: The HEK293T cells were washed twice with PBS, and trypsin was added for 1 min. Then 2.0 mL DMEM medium was added to the mixed well, followed by centrifuged at 1,000 r.p.m for 5 min, and the supernatant was discarded. Fresh medium was added to resuspend the cell pellet and cells were seeded in a confocal dish at the density of 0.5×1 05, the cells were gently mixed using pipette, and then placed in CO2 incubator. 150 mM sterile NaCl solution was prepared as a diluent for DNA and Vigofect (Vigorous Biotechnology Beijing Co., Ltd.). The culture medium in the confocal dish was then replaced with fresh complete culture medium before transfection, and the culture was incubated at 37° C. under 5% CO2 atmosphere. […] Configure the transfection working solution. […] Next, 2.5 μl VigoFect was added to the diluent (total 100 μl), and the solution was mixed gently and placed at room temperature for 5 min. Next, the diluted VigoFect was added into the diluted DNA solution gently, and the resulting transfection working solution was incubated at room temperature for 15 min. Subsequently, the working solution was added to the cell culture, mixed gently and incubated for 24 h. […] Cells were washed with PBS 3 times and then fixed with 4% paraformaldehyde for 15 min, and subsequently permeabilized with 0.5% Triton X-100 for 15 min. […]

SelU = SelU (Escherichia coli, UniProt P33667); assay type: biochemical, E. coli; settings: for modified RNA residues after click reaction and RNase cleavage (recognition by SelU): HPLC and MS-spec data
Sequence of SelU (P33667 whole entry): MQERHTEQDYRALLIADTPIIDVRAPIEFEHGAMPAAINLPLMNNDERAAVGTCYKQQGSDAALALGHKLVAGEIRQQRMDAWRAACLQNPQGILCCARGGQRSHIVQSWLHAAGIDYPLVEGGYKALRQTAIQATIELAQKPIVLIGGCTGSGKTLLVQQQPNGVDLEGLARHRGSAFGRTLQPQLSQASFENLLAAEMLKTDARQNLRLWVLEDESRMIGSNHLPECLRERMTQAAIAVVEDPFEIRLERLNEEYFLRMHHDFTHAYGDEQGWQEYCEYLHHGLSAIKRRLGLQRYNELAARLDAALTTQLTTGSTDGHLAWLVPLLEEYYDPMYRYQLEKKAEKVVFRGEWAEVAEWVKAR

prenylated tRNA = test: Direct fluorescent labelling of prenylated tRNA by Ene-ligation, in-gel fluorescence; settings: 10 μM probe; total RNAs isolated from E. coli
Procedure: tRNA (1.0 mg) isolated from E. coli using Zymo purification kit strictly following the instruction protocol was dissolved in PBS buffer (0.1 M, pH=7.4) and the PTAD-DBCO-Cy5 probe (1.0 mM) generated by in-situ oxidation with N-bromosuccinimide (NBS, 1 M in DMF) was added in one portion at 4° C. The mixture was incubated at 4° C. for 15 min in a sterile tube. And excess fluorescent probe was removed by 3K filter (Millipore) and the resulting nucleic acid was analyzed by in-gel fluorescence (Scheme S8).

HeLa cells [1] = test: Cytotoxic assays of i^6A (4) towards HeLa cells; assay type: cell-based
From the text: In order to better detect the involvement of i^6A (4) in the transcription process of cellular RNA, we also tested the effect of i^6A (4) on cytotoxicity and optimized the concentration of i^6A (4) to treat cells.

HeLa cells [2] = test: Incorporation of i^6A into total RNA of eukaryotic cells, detected with PTAD-DBCO-FITC (8); assay type: cell-based
Procedure: Next, we will further test whether i^6A (4) can participate in the RNA transcription process in eukaryotic cells. First culture the HeLa cells in a six-well plate to 70%-80%. […] After 12 hours of culture, collect all cells and extract total RNA.
To the 1.5 mL Eppendorf tube containing PTAD-DBCO-FITC precursor (7, 10 μL, 10 mM solution in DMF) was added N-bromo succinimide (1.0 μL, 100 mM in DMF). The mixture was vortexed gently and formation of the light-red color was observed. The reagent was kept on ice and used for the i^6A-incorporated RNA labelling immediately. Labeling protocol is the same stated above.
HeLa cells was obtained from ATCC. HeLa cells were cultured in DMED medium with 10% fetal calf serum. Cells were maintained in a humidified incubator at 5% CO2 and 37° C. To label RNA in vivo, HeLa cells were cultured in 6-well plates to 70%-80%. […] Then it will be detected by agarose gel electrophoresis. […]
The i^6A-incorporated total RNA ([…], 20 ng/mL in DEPC water) was incubated with PTAD-DBCO-FITC ([…] of a 0.1 mM solution), shaken for 30 minutes at 0° C. The RNA was then analyzed through gel electrophoresis on a 1% agarose gel. […] Gels were analyzed by in-gel fluorescence measurements on a FluorChem® FC3 imager (Alpha Innotech). Fluorescence was measured with a blue light excitation wavelength (475 nm) and a green filter emission (537 nm).

[3] = Dynamic investigation of the Ene-ligation of i^6A with PTAD by proton NMR; assay type: physicochemical; settings: i^6A 30 mM, PTAD 0.15 mmol, CD3CN/D2O (v/v, 1/1), room temperature, within 5 minutes
Procedure: Nucleoside i^6A (4, 10 mg, 0.03 mmol) were dissolved in CD3CN/D2O (1.0 mL, v/v=1:1, final concentration=30 mM). PTAD (5, 26 mg, 0.15 mmol) was then added to the solution (final concentration=150 mM), and the reaction mixture was allowed to stand at room temperature. The ^1H NMR spectra were recorded by proton NMR (400 MHz).
The nucleoside i^6A (10 mg, 0.03 mmol) was dissolved in a mixture of CD3CN and D2O (0.5 mL, volume-to-volume ratio of 4:1, resulting in a final concentration of 60 mM). Subsequently, 4-phenyl-3H-1,2,4-triazole-3,5(4H)-dione (PTAD, 26 mg, 0.15 mmol, equivalent to 5 times the amount of i^6A) was added to the solution (resulting in a final concentration of 300 mM). The reaction mixture was then allowed to stand at room temperature. The ^1H NMR spectra were obtained using a 400 MHz ^1H NMR instrument with CD3CN/D2O as the solvent.

[4] = Iodine-mediated cyclisation of nucleoside i^6A; assay type: physicochemical; settings: optimized concentration of iodine reagent
Procedure: Model reactions of i^6A nucleoside (4). The model reactions were carried out in DMSO-d6 in order to facilitate in situ NMR characterization without further purification. i^6A (4, 0.15 mmol) was dissolved in DMSO-d6 (0.5 mL), and iodine (0.45 mmol) was added. The mixture was stirred at 37° C. for 5 minutes and was taken out for ^1H NMR.
The reactions were conducted in DMSO-d^6 to enable in situ NMR characterization without the need for additional purification. i^6A (4, 0.15 mmol) was dissolved in DMSO-d^6 (0.5 mL), and iodine (0.45 mmol in DMSO-d^6) was subsequently added to the solution. The mixture was then stirred at 37° C. for 5 minutes. After this incubation period, the reaction mixture was subjected to ^1H NMR, ^13C NMR, HPLC, UV and LC-MS analysis.

T7 RNA polymerase = T7 RNA polymerase (Escherichia phage T7, UniProt P00573)
Sequence of T7 RNA polymerase (P00573 whole entry): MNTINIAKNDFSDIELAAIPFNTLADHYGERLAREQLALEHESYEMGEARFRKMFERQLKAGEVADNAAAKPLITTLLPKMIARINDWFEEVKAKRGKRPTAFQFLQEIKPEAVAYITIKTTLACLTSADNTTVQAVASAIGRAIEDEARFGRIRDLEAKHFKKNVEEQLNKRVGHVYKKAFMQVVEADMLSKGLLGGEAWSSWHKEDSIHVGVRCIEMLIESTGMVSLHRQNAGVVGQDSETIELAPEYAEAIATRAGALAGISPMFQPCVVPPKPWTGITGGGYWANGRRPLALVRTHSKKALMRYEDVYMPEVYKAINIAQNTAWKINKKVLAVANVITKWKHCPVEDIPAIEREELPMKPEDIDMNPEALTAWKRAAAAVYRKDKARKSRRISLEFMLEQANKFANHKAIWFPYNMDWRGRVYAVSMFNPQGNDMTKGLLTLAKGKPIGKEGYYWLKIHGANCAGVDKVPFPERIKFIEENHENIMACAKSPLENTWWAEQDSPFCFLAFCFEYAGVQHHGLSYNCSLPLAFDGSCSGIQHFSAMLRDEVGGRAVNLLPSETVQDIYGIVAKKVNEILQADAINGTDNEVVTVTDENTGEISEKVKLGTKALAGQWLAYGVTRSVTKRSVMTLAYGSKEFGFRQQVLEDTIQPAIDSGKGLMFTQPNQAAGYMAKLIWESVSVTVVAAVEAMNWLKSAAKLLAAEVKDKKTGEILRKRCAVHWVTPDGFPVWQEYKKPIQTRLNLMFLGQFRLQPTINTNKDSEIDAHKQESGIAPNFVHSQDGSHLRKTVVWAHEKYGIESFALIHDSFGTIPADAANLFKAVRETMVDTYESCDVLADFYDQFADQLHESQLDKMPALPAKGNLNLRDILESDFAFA
Procedure: Using the T7P-EGFP constructed above as a template and rNTP as substrates, the reaction was carried out at 37° C. for 2 hours which was catalyzed by T7 RNA polymerase. After the reaction, the template DNA T7P-EGFP was degraded with DNase I. Finally, the RNA was precipitated and purified, and the transcription effect of the RNA was detected by agarose gel electrophoresis. The T7P-EGFP template sequence and HeLa genomic RNA were used as the control group.
EGFP-RNA was transcript with T7 transcription kit (Takara) in vitro. The system was kept at 37° C. for 2 hours. 1-4 extended to 6 hours. Then the templets were digested with DNase 1, 37° C. for 30 minutes. […] RNA concentration was determined with a Nanodrop One microvolume UV-Vis. spectrophotometer.

**Q.** Which “red fluorescence of geranylated tRNA in cells, direct labelling” value (HEK293T cells; transfected SelU and 5s (tRNA^Lys), probe PTAD-DBCO-Cy5) does the source give for `CC(C)=CCC/C(C)=C/COP(=O)(O)OP(=O)(O)O` [Ge1, (E)-3,7-dimethylocta-2,6-dien-1-yldiphosphate Tetrabutylammonium Trimer, reference compound] here?
**A.** clearly showed the red fluorescence

**Q.** With `CC(C)=CCCC(C)CCOP(=O)(O)OP(=O)(O)O` (centres unmarked) [Ge2, 3,7-dimethyloct-6-en-1-yl pyrophosphate] as the molecule, how does the “modified RNA residues after click reaction and RNase cleavage (recognition by SelU)” value (SelU) read?
**A.** no modified RNA residues

**Q.** Which “modified RNA residues after click reaction and RNase cleavage (recognition by SelU)” value (SelU) does the source give for `CC(C)=CCCOP(=O)(O)OP(=O)(O)O` [Ge3, 4-methylpent-3-en-1-yl Diphosphate Tetrabutyl Ammonium Trimer] here?
**A.** no modified RNA residues

**Q.** With `C/C(=C\COP(=O)(O)OP(=O)(O)O)CC/C=C(\C)CN=[N+]=[N-]` [Ge5] as the molecule, how does the “fluorescent labelling of tRNA^Gln, Glu, Lys after SelU-mediated transfer of the ligand” value (SelU) read?
**A.** efficient fluorescent signal of tRNA was observed

**Q.** What about the “red fluorescence in cells, two-step ACT-Flu approach” value (HEK293T cells; SelU co-transfected, probe DBCO-Cy5) of the same molecule?
**A.** strong red florescence

**Q.** For `C/C(=C\COP(=O)(O)OP(=O)(O)O)CC/C=C(\C)COC(=O)CCC(=O)N1Cc2ccccc2C#Cc2ccccc21` [Ge7], which “fluorescent labelling of tRNA^Gln, Glu, Lys after SelU-mediated transfer of the ligand” value (SelU) is on record?
**A.** failed

**Q.** For `CN1/C(=C/C=C/C=C/C2=[N+](CCCCCC(=O)NCCC(=O)N3Cc4ccccc4-c4c(nnn4CCOc4ccc(N5C(=O)N=NC5=O)cc4)-c4ccccc43)c3ccccc3C2(C)C)C(C)(C)c2ccccc21.[Cl-]` [PTAD-DBCO-Cy5], which “fluorescent signal of total RNAs treated with the probe” value (prenylated tRNA) is on record?
**A.** a red fluorescent signal was observed

**Q.** Which results are given for `CC(C)=CCNc1ncnc2c1ncn2[C@@H]1O[C@H](CO)[C@@H](O)[C@H]1O` [i^6A (4), N^6-(3-methylbut-2-enyl)-adenosine]?
**A.** cytotoxic concentration (HeLa cells [1]; HeLa cells): 800 µM; effect on cell viability (HeLa cells [1]; concentration 800 μM): cell viability will be significantly inhibited; effect on cells (HeLa cells [1]; concentration 2.0 mM): significant inhibitory effect on cells; effect on cell viability (HeLa cells [1]; concentration within 400 μM): little effect on cell viability; fluorescence signal of total RNA after PTAD-DBCO-FITC (8) staining (HeLa cells [2]; cells cultured in the presence of i^6A, none in control group): significant fluorescence signal was detected; fluorescence signal of total RNA after PTAD-DBCO-FITC (8) staining (HeLa cells [2]; i^6A 800 μM): weaker RNA fluorescence signal; conversion yield in reaction with PTAD [3]: approximately 50%; time to full conversion with iodine [4]: less than 5 minutes

**Q.** With `CC(C)=CCNc1ncnc2c1ncn2C1OC(COP(=O)(O)OP(=O)(O)OP(=O)(O)O)C(O)C1O` (centres unmarked) [i^6ATP] as the molecule, how does the “recognition efficiency of T7 RNA polymerase” value (T7 RNA polymerase; compared with K4, preliminary experiments) read?
**A.** significantly higher than that of K4

**Q.** What about the “recognition efficiency by T7 RNA polymerase” value (T7 RNA polymerase; compared with rATP) of the same molecule?
**A.** low comparing with rATP
